According to patent US7329685B2, “1-Phenyl-2-oxo-3-sulfonylamino-pyrrolidine derivatives and related compounds as factor Xa inhibitors for the treatment of acute vascular diseases” (Glaxo Group Limited, priority 2003, dated 2008):
pKi: −log10 of the molar value. Counter-ions that a name gives are not always drawn.

Target: human Factor Xa (Homo sapiens, UniProt P00742)
Test: In vitro assay for inhibition of Factor Xa (fluorogenic assay, Rhodamine 110 bis-CBZ-glycylglycyl-L-arginine amide substrate)
Type: biochemical
Settings: Ki = IC50/1.6, tiers 'more preferably' and 'most preferably'
Procedure: In Vitro Assay for Inhibition of Factor Xa
Compounds of the present invention were tested for their Factor Xa inhibitory activity as determined in vitro by their ability to Inhibit human Factor Xa in a fluorogenic assay, using Rhodamine 110, bis-CBZ-glycylglycyl-L-arginine amide as the fluorogenic substrate. Compounds were diluted from a 10 mM stock solution in dimethylsulfoxide at appropriate concentrations. Assay was performed at room temperature using buffer consisting of: 50 mM Tris-HCl, 150 mM NaCl, 5 mM CaCl2, pH 7.4. containing human Factor Xa (final conc. Of 0.0003U.ml-1). Compound and enzyme were preincubated for 15 min prior to addition of the substrate (final conc. of 10 μM). The reaction was stopped after 3 hrs with the addition of H-D-Phe-Pro-Arg-Chloromethylketone. An LJL-Analyst fluorimeter was used to monitor fluorescence with 485 nm excitation/535 nm emission. To obtain IC50 values the data were analysed using ActivityBase® and XLfit®.
Calculation of Ki values: Ki=IC50/(1+[Substrate]/Km)
The Ki value for the above assay can be obtained by dividing the IC50 value by 1.6.

human Factor Xa, sequence (P00742 235-488 limits assumed): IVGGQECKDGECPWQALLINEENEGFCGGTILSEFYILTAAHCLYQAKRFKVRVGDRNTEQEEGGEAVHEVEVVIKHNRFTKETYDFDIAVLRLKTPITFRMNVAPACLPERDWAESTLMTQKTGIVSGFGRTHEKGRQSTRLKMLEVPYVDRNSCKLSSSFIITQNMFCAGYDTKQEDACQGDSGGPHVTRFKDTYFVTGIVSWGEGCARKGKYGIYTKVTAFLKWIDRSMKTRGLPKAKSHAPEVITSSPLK
human Factor Xa, sequence (P00742 41-179 partner limits assumed): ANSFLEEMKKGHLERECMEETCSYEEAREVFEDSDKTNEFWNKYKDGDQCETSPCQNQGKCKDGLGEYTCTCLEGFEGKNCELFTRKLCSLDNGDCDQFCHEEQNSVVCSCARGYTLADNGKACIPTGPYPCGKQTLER

| Compound | pKi |
| --- | --- |
| C/C(=C\S(=O)(=O)N(CC1CC1)[C@H]1CCN(c2ccc(C(=O)N(C)C)cc2F)C1=O)c1ccc(Cl)s1 [Example 1, 4-{(3S)-3-[{[(1E)-2-(5-Chloro-2-thienyl)-1-propen-1-yl]sulfonyl}(cycloprotylmethyl)amino]-2-oxo-1-pyrrolidinyl}-3-fluoro-N,N-dimethylbenzamide] | > 8.00 |
| COCCN([C@H]1CCN(c2ccc(C(=O)N(C)C)cc2F)C1=O)S(=O)(=O)/C=C(\C)c1ccc(Cl)s1 [Example 10, 4-((3S)-3-{{[(1E)-2-(5-Chloro-2-thienyl)-1-propen-1-yl]sulfonyl}[2-(methyloxy)ethyl]amino}-2-oxo-1-pyrrolidinyl)-3-fluoro-N,N-dimethylbenzamide] | > 8.00 |
| C/C(=C\S(=O)(=O)N(CCOC(C)(C)C)[C@H]1CCN(c2ccc(C(=O)N(C)C)cc2F)C1=O)c1ccc(Cl)s1 [Example 11, 4-[(3S)-3-({[(1E)-2-(5-Chloro-2-thienyl)-1-propen-1-yl]sulfonyl}{2-[(1,1-dimethylethyl)oxy]ethyl}amino)-2-oxo-1-pyrrolidinyl]-3-fluoro-N,N-dimethylbenzamide] | > 8.00 |
| C/C(=C\S(=O)(=O)N(Cc1nccnc1N)[C@H]1CCN(c2ccc(C(=O)N(C)C)cc2F)C1=O)c1ccc(Cl)s1 [Example 12, 4-[(3S)-3-([(3-Amino-2-pyrazinyl)methyl]{[(1E)-2-(5-chloro-2-thienyl)-1-propen-1-yl]sulfonyl}amino)-2-oxo-1-pyrrolidinyl]-3-fluoro-N,N-dimethylbenzamide] | > 8.00 |
| C/C(=C\S(=O)(=O)N(C)[C@H]1CCN(c2ccc(C(=O)N(C)C)cc2F)C1=O)c1ccc(Cl)s1 [Example 13, 4-{(3S)-3-[{[(1E)-2-(5-Chloro-2-thienyl)-1-propen-1-yl]sulfonyl}(methyl)amino]-2-oxo-1-pyrrolidinyl}-3-fluoro-N,N-dimethylbenzamide] | > 8.00 |
| CN(C)C(=O)c1ccc(N2CC[C@H](N(C)S(=O)(=O)/C=C/c3ccc(Cl)s3)C2=O)c(F)c1 [Example 14, 4-{(3S)-3-[{[(E)-2-(5-chloro-2-thienyl)ethenyl]sulfonyl}(methyl)amino]-2-oxo-1-pyrrolidinyl}-3-fluoro-N,N-dimethylbenzamide] | > 8.00 |

Other lines, results leading:

| pKi | Compound |
| --- | --- |
| > 8.00 | C/C(=C\S(=O)(=O)N(CCCN(C)C)[C@H]1CCN(c2ccc(C(=O)N(C)C)cc2F)C1=O)c1ccc(Cl)s1 [Example 2, 4-((3S)-3-{{[(1E)-2-(5-Chloro-2-thienyl)-1-propen-1-yl]sulfonyl}[3-(dimethylamino)propyl]amino}-2-oxo-1-Pyrrolidinyl)-3-fluoro-N,N-dimethylbenzamide formate] |
| > 8.00 | C/C(=C\S(=O)(=O)N(CCOCC(N)=O)[C@H]1CCN(c2ccc(C(=O)N(C)C)cc2F)C1=O)c1ccc(Cl)s1 [Example 4, 4-[(3S)-3-({2-[(2-Amino-2-oxoethyl)oxy]ethyl}{[(1E)-2-(5-chloro-2-thienyl)-1-propen-1-yl]sulfonyl}amino)-2-oxo-1-pyrrolidinyl]-3-fluoro-N,N-dimethylbenzamide] |
| > 8.00 | C/C(=C\S(=O)(=O)N(C1CCCC1)[C@H]1CCN(c2ccc(C(=O)N(C)C)cc2F)C1=O)c1ccc(Cl)s1 [Example 5, 4-{(3S)-3-[{[(1E)-2-(5-Chloro-2-thienyl)-1-propen-1-yl]sulfonyl}(cyclopentyl)amino]-2-oxo-1-pyrrolidinyl}-3-fluoro-N,N-dimethylbenzamide] |
| > 8.00 | C/C(=C\S(=O)(=O)N(Cc1nccn1C)[C@H]1CCN(c2ccc(C(=O)N(C)C)cc2F)C1=O)c1ccc(Cl)s1 [Example 6, 4-((3S)-3{{[(1E)-2-(5-Chloro-2-thienyl)-1-propen-1-yl]sulfonyl}[(1-methyl-1H-imidazol-2-yl)methyl]amino}-2-oxo-1-pyrrolidinyl)-3-fluoro-N,N-dimethylbenzamide] |
| > 8.00 | C/C(=C\S(=O)(=O)N(C(C)C)[C@H]1CCN(c2ccc(C(=O)N(C)C)cc2F)C1=O)c1ccc(Cl)s1 [Example 7, 4-{(3S)-3-[{[(1E)-2-(5-Chloro-2-thienyl)-1-propen-1-yl]sulfonyl}(1-methylethyl)amino]-2-oxo-1-pyrrolidinyl}-3-fluoro-N,N-dimethylbenzamide] |
| > 8.00 | C/C(=C\S(=O)(=O)N(Cc1ccccn1)[C@H]1CCN(c2ccc(C(=O)N(C)C)cc2F)C1=O)c1ccc(Cl)s1 [Example 8, 4-{(3S)-3-[{[(1E)-2-(5-Chloro-2-thienyl)-1-propen-1-yl]sulfonyl}(2-pyridinylmethyl)amino]-2-oxo-1-pyrrolidinyl}-3-fluoro-N,N-dimethylbenzamide] |
| > 8.00 | C/C(=C\S(=O)(=O)N(Cc1c(C)noc1C)[C@H]1CCN(c2ccc(C(=O)N(C)C)cc2F)C1=O)c1ccc(Cl)s1 [Example 9, 4-((3S)-3-{{[(1E)-2-(5-Chloro-2-thienyl)-1-propen-1-yl]sulfonyl}[(3,5-dimethyl-4-isoxazolyl)methyl]amino}-2-oxo-1-pyrrolidinyl)-3-fluoro-N,N-dimethylbenzamide] |
